Data from PubChem BioAssay (NCI).
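Here, GI50 denotes the concentration required for 50% inhibition of growth. TGI denotes the concentration required for complete inhibition of growth.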

What was measured:
Assay in all cases: NCI anticancer screen, dose series, 384-well format
786-0 renal = system: 786-0 renal
A549 NSCLC = system: A549 NSCLC
BT-549 breast = system: BT-549 breast
CAKI-1 renal = system: CAKI-1 renal
CCRF-CEM leukemia = system: CCRF-CEM leukemia
COLO 205 colon = system: COLO 205 colon
DU-145 prostate = system: DU-145 prostate
EKVX NSCLC = system: EKVX NSCLC
HCC-2998 colon = system: HCC-2998 colon
HCT-116 colon = system: HCT-116 colon
HCT-15 colon = system: HCT-15 colon
HL-60(TB) leukemia = system: HL-60(TB) leukemia
HOP-62 NSCLC = system: HOP-62 NSCLC
HS 578T breast = system: HS 578T breast
HT29 colon = system: HT29 colon
IGROV1 ovarian = system: IGROV1 ovarian
K-562 leukemia = system: K-562 leukemia
KM12 colon = system: KM12 colon
LOX IMVI melanoma = system: LOX IMVI melanoma
M14 melanoma = system: M14 melanoma
MALME-3M melanoma = system: MALME-3M melanoma
MCF7 breast = system: MCF7 breast
MDA-MB-231 breast = system: MDA-MB-231 breast
MDA-MB-435 melanoma = system: MDA-MB-435 melanoma
MDA-MB-468 breast = system: MDA-MB-468 breast
MOLT-4 leukemia = system: MOLT-4 leukemia
NCI-H226 lung = system: NCI-H226 lung
NCI-H23 lung = system: NCI-H23 lung
NCI-H322M lung = system: NCI-H322M lung
NCI-H460 NSCLC = system: NCI-H460 NSCLC
NCI-H522 lung = system: NCI-H522 lung
NCI/ADR-RES ovarian = system: NCI/ADR-RES ovarian
OVCAR-3 ovarian = system: OVCAR-3 ovarian
OVCAR-4 ovarian = system: OVCAR-4 ovarian
OVCAR-5 ovarian = system: OVCAR-5 ovarian
OVCAR-8 ovarian = system: OVCAR-8 ovarian
PC-3 prostate = system: PC-3 prostate
RPMI-8226 leukemia = system: RPMI-8226 leukemia
RXF 393 renal = system: RXF 393 renal
SF-268 CNS = system: SF-268 CNS
SF-295 CNS = system: SF-295 CNS
SF-539 CNS = system: SF-539 CNS
SK-MEL-2 melanoma = system: SK-MEL-2 melanoma
SK-MEL-28 melanoma = system: SK-MEL-28 melanoma
SK-MEL-5 melanoma = system: SK-MEL-5 melanoma
SK-OV-3 ovarian = system: SK-OV-3 ovarian
SN12C renal = system: SN12C renal
SNB-19 CNS = system: SNB-19 CNS
SNB-75 CNS = system: SNB-75 CNS
SR leukemia = system: SR leukemia
SW-620 colon = system: SW-620 colon
T-47D breast = system: T-47D breast
TK-10 renal = system: TK-10 renal
U251 glioblastoma = system: U251 glioblastoma
UACC-257 melanoma = system: UACC-257 melanoma
UACC-62 melanoma = system: UACC-62 melanoma
UO-31 renal = system: UO-31 renal

Compound: C=CCn1c(=O)c2cnc(Nc3ccc(N4CCN(C)CC4)cc3)nc2n1-c1cccc(C(C)(C)O)n1
- GI50 ([…]-0 renal): 0.183 µM
- TGI (786-0 renal): 0.414 µM
- GI50 (A549 NSCLC): 1.02 µM
- TGI (A549 NSCLC): 12.8 µM
- GI50 (BT-549 breast): 0.115 µM
- TGI (BT-549 breast): 0.299 µM
- GI50 (CAKI-1 renal): 0.0723 µM
- TGI (CAKI-1 renal): 11.2 µM
- GI50 (CCRF-CEM leukemia): 0.0699 µM
- TGI (CCRF-CEM leukemia): 0.197 µM
- GI50 (COLO 205 colon): 0.294 µM
- TGI (COLO 205 colon): 0.829 µM
- GI50 (DU-145 prostate): 0.262 µM
- TGI (DU-145 prostate): 1.81 µM
- GI50 (EKVX NSCLC): 0.56 µM
- TGI (EKVX NSCLC): 4.8 µM
- GI50 (HCC-2998 colon): 0.203 µM
- TGI (HCC-2998 colon): 0.555 µM
- GI50 (HCT-116 colon): 0.308 µM
- TGI (HCT-116 colon): 2.24 µM
- GI50 (HCT-15 colon): 0.326 µM
- TGI (HCT-15 colon): 1.21 µM
- GI50 (HL-60(TB) leukemia): 0.148 µM
- TGI (HL-60(TB) leukemia): 0.284 µM
- GI50 (HOP-62 NSCLC): 0.406 µM
- TGI (HOP-62 NSCLC): 2.13 µM
- GI50 (HS 578T breast): 0.154 µM
- TGI (HS 578T breast): 0.529 µM
- GI50 (HT29 colon): 0.319 µM
- TGI (HT29 colon): 15.2 µM
- GI50 (IGROV1 ovarian): 0.173 µM
- TGI (IGROV1 ovarian): 1.09 µM
- GI50 (K-562 leukemia): 0.175 µM
- TGI (K-562 leukemia): 0.347 µM
- GI50 (KM12 colon): 0.218 µM
- TGI (KM12 colon): 0.649 µM
- GI50 (LOX IMVI melanoma): 0.626 µM
- TGI (LOX IMVI melanoma): 2.71 µM
- GI50 (M14 melanoma): 0.0514 µM
- TGI (M14 melanoma): 0.246 µM
- GI50 (MALME-3M melanoma): 0.0529 µM
- TGI (MALME-3M melanoma): 0.342 µM
- GI50 (MCF7 breast): 0.216 µM
- TGI (MCF7 breast): 11.5 µM
- GI50 (MDA-MB-231 breast): 0.372 µM
- TGI (MDA-MB-231 breast): 7.33 µM
- GI50 (MDA-MB-435 melanoma): 0.201 µM
- TGI (MDA-MB-435 melanoma): 0.413 µM
- GI50 (MDA-MB-468 breast): 0.22 µM
- TGI (MDA-MB-468 breast): 0.492 µM
- GI50 (MOLT-4 leukemia): 0.0299 µM
- TGI (MOLT-4 leukemia): 0.103 µM
- GI50 (NCI-H226 lung): 1.41 µM
- TGI (NCI-H226 lung): 9.22 µM
- GI50 (NCI-H23 lung): 0.0945 µM
- TGI (NCI-H23 lung): 0.254 µM
- GI50 (NCI-H322M lung): 0.233 µM
- TGI (NCI-H322M lung): 0.935 µM
- GI50 (NCI-H460 NSCLC): 0.574 µM
- TGI (NCI-H460 NSCLC): 3.42 µM
- GI50 (NCI-H522 lung): 0.135 µM
- TGI (NCI-H522 lung): 0.286 µM
- GI50 (NCI/ADR-RES ovarian): 1.81 µM
- TGI (NCI/ADR-RES ovarian): 4.95 µM
- GI50 (OVCAR-3 ovarian): 0.13 µM
- TGI (OVCAR-3 ovarian): 0.328 µM
- GI50 (OVCAR-4 ovarian): 0.157 µM
- TGI (OVCAR-4 ovarian): 0.407 µM
- GI50 (OVCAR-5 ovarian): 0.596 µM
- TGI (OVCAR-5 ovarian): 6.1 µM
- GI50 (OVCAR-8 ovarian): 0.219 µM
- TGI (OVCAR-8 ovarian): 0.566 µM
- GI50 (PC-3 prostate): 0.724 µM
- TGI (PC-3 prostate): 21 µM
- GI50 (RPMI-8226 leukemia): 0.26 µM
- TGI (RPMI-8226 leukemia): 1.12 µM
- GI50 (RXF 393 renal): 0.0487 µM
- TGI (RXF 393 renal): 0.196 µM
- GI50 (SF-268 CNS): 0.559 µM
- TGI (SF-268 CNS): 10.7 µM
- GI50 (SF-295 CNS): 0.357 µM
- TGI (SF-295 CNS): 2.26 µM
- GI50 (SF-539 CNS): 0.051 µM
- TGI (SF-539 CNS): 0.178 µM
- GI50 (SK-MEL-2 melanoma): 0.16 µM
- TGI (SK-MEL-2 melanoma): 0.393 µM
- GI50 (SK-MEL-28 melanoma): 3.44 µM
- TGI (SK-MEL-28 melanoma): 17.1 µM
- GI50 (SK-MEL-5 melanoma): 0.187 µM
- TGI (SK-MEL-5 melanoma): 0.46 µM
- GI50 (SK-OV-3 ovarian): 0.0766 µM
- TGI (SK-OV-3 ovarian): 1.46 µM
- GI50 (SN12C renal): 0.311 µM
- TGI (SN12C renal): 2.27 µM
- GI50 (SNB-19 CNS): 0.502 µM
- TGI (SNB-19 CNS): 15.4 µM
- GI50 (SNB-75 CNS): 1.21 µM
- TGI (SNB-75 CNS): 4.35 µM
- GI50 (SR leukemia): 0.0584 µM
- TGI (SR leukemia): 0.184 µM
- GI50 (SW-620 colon): 0.352 µM
- TGI (SW-620 colon): 1.93 µM
- GI50 (T-47D breast): 5.88 µM
- TGI (T-47D breast): 28.9 µM
- GI50 (TK-10 renal): 0.171 µM
- TGI (TK-10 renal): 0.7 µM
- GI50 (U251 glioblastoma): 0.419 µM
- TGI (U251 glioblastoma): 6.77 µM
- GI50 (UACC-257 melanoma): 10 µM
- TGI (UACC-257 melanoma): 21.9 µM
- GI50 (UACC-62 melanoma): 0.354 µM
- TGI (UACC-62 melanoma): 12.8 µM
- GI50 (UO-31 renal): 0.274 µM
- TGI (UO-31 renal): 1.25 µM
